{"source": "patent US20230270797A1", "about": "“NOVEL STRAIN OF THE SPECIES LACTICASEIBADLLUS RHAMNOSUS, COMPOSITIONS THEREOF AND USE THEREOF IN THE TREATMENT OF GENITOURINARY INFECTIONS” (URIACH ITALY S.R.L., priority 2020, published 2023)", "assay": "Antioxidant activity, linoleic acid peroxidation (ferric thiocyanate)", "type": "biochemical", "conditions": "cell free supernatant; linoleic acid 50 mM; negative control (MRS broth) Abs500 nm = 2", "method": "Oxidation was measured by determining ferric thiocyanate. Butylated hydroxytoluene (BHT) and α-tocopherol (1 mg/mL) were used as positive controls. MRS broth was used as negative control. […] The analysis was carried out in triplicate."}
{"compound": "Cc1c(C)c2c(c(C)c1O)CC[C@@](C)(CCC[C@H](C)CCC[C@H](C)CCCC(C)C)O2", "note": "[positive control, α-tocopherol]", "values": [{"measurement": "Antioxidant activity, absorbance values at 500nm", "result": "positive control: Abs500 nm = 0.25)"}]}
